Source: US10519114B2, “Peptidomimetics and methods of using the same” (The Regents of the University of Michigan, priority 2016, dated 2019)

Key:
[1] = target: T1, rat μ (C6-MOR) opioid receptor (Rattus norvegicus, UniProt P33535); test: Radioligand binding assay, [3H]diprenorphine displacement, MOR; conditions: displacement of 0.2 nM [3H]diprenorphine, C6-MOR membranes; mean ± standard error
T1 construct: expressed in transfected cells
In short: (§1)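 Membranes from C6 glioma cells stably expressing rat MOR or DOR, or CHO cells expressing human KOR (20 μg protein), were incubated with 0.2 nM [3H]diprenorphine and test peptide in 50 mM Tris-HCl pH 7.4 for 1 h at room temperature. Nonspecific binding defined with 10 μM naloxone; Ki from nonlinear regression.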

[2] = target: T2, rat δ (C6-DOR) opioid receptor (Rattus norvegicus, UniProt P33533); test: Radioligand binding assay, [3H]diprenorphine displacement, DOR; conditions: displacement of 0.2 nM [3H]diprenorphine, C6-DOR membranes; mean ± standard error
T2 construct: expressed in transfected cells
In short: as §1

[3] = target: T3, human κ (CHO-KOR) opioid receptor (Homo sapiens, UniProt P41145); test: Radioligand binding assay, [3H]diprenorphine displacement, KOR; conditions: displacement of 0.2 nM [3H]diprenorphine, CHO-KOR membranes; mean ± standard error
T3 construct: expressed in transfected cells
In short: as §1

[4] = target: T1, rat μ (C6-MOR) opioid receptor; test: Stimulation of [35S]GTPγS binding, MOR; assay type: biochemical; conditions: for EC50: [35S]GTPγS binding, C6-MOR membranes, mean ± standard error; for Emax: [35S]GTPγS maximal stimulation compared with 10 μM standard DAMGO
In short: (§2)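 Peptide-stimulated [35S]GTPγS (0.1 nM) binding, with 30 μM GDP, 5 mM MgCl2 and 100 mM NaCl at pH 7.4, was measured over 1 h at room temperature. Membranes came from rat MOR/DOR C6 or human KOR CHO cells. Filter-retained counts were expressed against 10 μM DAMGO, DPDPE or U69,593 respectively; maxima were fitted nonlinearly.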

[5] = target: T2, rat δ (C6-DOR) opioid receptor; test: Stimulation of [35S]GTPγS binding, DOR; assay type: biochemical; conditions: for EC50 (nm) DOR / EC50: [35S]GTPγS binding, C6-DOR membranes, mean ± standard error; for % stimulation DOR / Emax: [35S]GTPγS maximal stimulation compared with 10 μM standard DPDPE
In short: as §2

C57BL/6 mice = test: Antinociception, warm water tail withdrawal assay;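 for Antinociceptive activity: fully efficacious means no withdrawal up to the 20 s cutoff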; assay type: in vivo; conditions: mouse tail withdrawal; for Antinociceptive activity: 50° C. water bath, cutoff 20 s, ip; for Duration: duration of antinociceptive action, 50° C.
Protocol: In Vivo Pharmacology. Animals. Adult male C57BL/6 mice weighing between 20 and 30 g at 8-16 weeks old were used for the current experiments (obtained from Jackson Laboratories (Bar Harbor, Me.), Harlan (Indianapolis, Ind.), or bred in-house). Mice were group-housed and had free access to food and water at all times. Experiments were conducted in the housing room, which was maintained on a 12 h light/dark cycle (with lights on at 0700). Each mouse was used only once and experiments were conducted between 11 a.m. and 4 p.m. Studies were performed in accordance with the University of Michigan Committee on the Use and Care of Animals and the Guide for the Care and Use of Laboratory Animals (National Research Council, 2011 publication).
Antinociception. The antinociceptive effects of the compounds disclosed herein and morphine can be evaluated in the warm water tail withdrawal assay using a cumulative dosing procedure. To determine tail withdrawal latencies, each mouse was placed briefly into a plastic, cylindrical restrainer and 2-3 cm of the tail tip was placed into a water bath maintained at 50° C. The latency to withdraw the tail was recorded with a maximum cutoff time of 20 s. […] Each animal received an injection of saline (intraperitoneal, ip) and then 30 min later, the baseline withdrawal latencies were recorded and ranged between 3 and 6 s. Following baseline determinations, three increasing doses (1, 2.2, and 6.8 mg/kg) of 1(4R) were given at 30 min intervals to provide final doses of 1, 3.2, and 10 mg/kg. Thirty minutes after each injection, the tail withdrawal latency was measured as described above. To confirm that 1(4R) was acting at opioid receptors, the cumulative dose response was repeated over the doses 3.2, 10, and 32 mg/kg following a 30 min pretreatment with 1 mg/kg naltrexone (ip). To determine the time-course of antinociceptive action the tail-withdrawal test was performed at varying times following administration of morphine (10 mg/kg, ip) or 1(4R) (10 mg/kg, ip).

[6] = target: T3, human κ (CHO-KOR) opioid receptor; test: Stimulation of [35S]GTPγS binding, KOR; assay type: biochemical
In short: as §2

[7] = [35S]GTPγS binding, CHO-KOR membranes, mean ± standard error
[8] = [35S]GTPγS maximal stimulation compared with 10 μM standard U-69,593

T2 sequence (P33533 whole entry): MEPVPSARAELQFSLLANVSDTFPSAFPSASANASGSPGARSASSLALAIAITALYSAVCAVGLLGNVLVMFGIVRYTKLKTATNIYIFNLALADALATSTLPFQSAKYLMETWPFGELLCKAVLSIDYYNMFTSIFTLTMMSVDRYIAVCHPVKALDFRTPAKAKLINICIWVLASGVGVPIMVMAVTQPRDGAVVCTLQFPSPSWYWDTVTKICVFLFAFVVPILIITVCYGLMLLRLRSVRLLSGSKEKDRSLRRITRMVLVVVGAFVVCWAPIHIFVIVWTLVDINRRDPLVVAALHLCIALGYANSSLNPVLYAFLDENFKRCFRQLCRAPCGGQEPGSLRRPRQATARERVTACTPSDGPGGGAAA
T1 sequence (P33535 whole entry): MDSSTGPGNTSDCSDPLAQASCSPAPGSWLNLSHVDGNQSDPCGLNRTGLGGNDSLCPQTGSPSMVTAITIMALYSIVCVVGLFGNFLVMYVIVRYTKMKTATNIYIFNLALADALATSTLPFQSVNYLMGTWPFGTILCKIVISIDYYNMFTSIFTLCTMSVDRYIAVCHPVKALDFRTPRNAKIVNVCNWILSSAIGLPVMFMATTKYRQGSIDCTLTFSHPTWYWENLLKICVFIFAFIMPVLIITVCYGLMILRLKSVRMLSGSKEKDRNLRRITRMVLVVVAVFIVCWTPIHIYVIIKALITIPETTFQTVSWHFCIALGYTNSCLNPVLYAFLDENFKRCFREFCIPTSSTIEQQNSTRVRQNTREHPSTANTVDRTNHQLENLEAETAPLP
T3 sequence (P41145 whole entry): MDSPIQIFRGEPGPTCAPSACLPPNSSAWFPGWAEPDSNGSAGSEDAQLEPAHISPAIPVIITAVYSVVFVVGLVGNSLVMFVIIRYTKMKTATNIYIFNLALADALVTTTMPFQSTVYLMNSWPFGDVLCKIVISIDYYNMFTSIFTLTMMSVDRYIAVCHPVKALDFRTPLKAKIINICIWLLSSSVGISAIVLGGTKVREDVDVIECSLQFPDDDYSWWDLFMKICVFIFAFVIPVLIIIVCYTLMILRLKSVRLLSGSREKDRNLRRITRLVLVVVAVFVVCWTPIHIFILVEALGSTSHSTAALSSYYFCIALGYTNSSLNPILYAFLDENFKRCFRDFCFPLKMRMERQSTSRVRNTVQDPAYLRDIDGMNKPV

Structure (SMILES) | Ki [1] [nM] | Ki [2] [nM] | Ki [3] [nM] | EC50 [4] [nM] | Emax [4] [%] | EC50 (nm) DOR [5] | % stimulation DOR [5] | Antinociceptive activity (C57BL/6 mice) | EC50 [5] [nM] | Emax [5] [%] | EC50 (nm) KOR [6, 7] | % stimulation KOR [6, 8] | EC50 [6, 7] [nM] | Emax [6, 8] [%] | Duration (C57BL/6 mice) [min]
Cc1cc(O)cc(C)c1C[C@H](N)C(=O)N[C@@H]1CCNc2c(Cc3ccccc3)cc(Cc3ccccc3)cc21 [Compound 1041] | 0.73 | 0.86 | 13.2 | 7.25 | 73 | dns | dns | Inactive |  |  |  |  |  |  | 
CCCc1cc(Cc2ccccc2)cc2c1NCC[C@H]2NC(=O)[C@@H](N)Cc1c(C)cc(O)cc1C [Compound 1056] | 0.64 ± 0.08 | 5.89 ± 1.5 | 98.4 ± 18.2 | 23.3 ± 6.94 | 89.5 ± 6.27 |  |  | Inactive | 307 ± 28.6 | 35.7 ± 2.62 | dns | dns |  |  | 
Cc1cc(O)cc(C)c1C[C@H](N)C(=O)N[C@@H]1CCNc2c1cc(Cc1ccccc1)cc2C(C)(C)C [Compound 1057] | 0.91 ± 0.4 | 3.78 ± 0.66 | 64.7 ± 17.8 | 9.87 ± 3.55 | 83.2 ± 4.6 |  |  | Partially active | 238 ± 39.3 | 57.9 ± 14 | dns | dns |  |  | 
Cc1cc(O)cc(C)c1C[C@H](N)C(=O)N[C@H]1c2cc(Cc3ccccc3)ccc2NC[C@H]1C [Compound 1078] | 0.75 ± 0.03 | 2.02 ± 0.21 | 17.7 ± 2.24 | 3.14 ± 1.51 | 80.2 ± 7.89 |  |  |  | 30.9 | 21.4 |  |  | 900 ± 326 | 26.4 ± 5.75 | 
Cc1cc(O)cc(C)c1C[C@H](N)C(=O)N[C@@H]1CCNc2c(F)cc(Cc3ccccc3)cc21 [Compound 1090] |  |  |  |  |  |  |  | Inactive |  |  |  |  |  |  | 
Cc1cc(O)cc(C)c1C[C@H](N)C(=O)N[C@@H]1CCNc2c(-c3cc4ccccc4o3)cc(Cc3ccccc3)cc21 [Compound 1095] | 3.14 ± 1 | 71 ± 17 | 800 ± 115 | 15.6 ± 6.86 | 100 ± 2.48 | dns | dns |  |  |  | dns | dns |  |  | 
Cc1cc(O)cc(C)c1C[C@H](N)C(=O)N[C@@H]1CCNc2c(CN3CCN(C(=O)[C@@H](N)Cc4c(C)cc(O)cc4C)CC3)cc(Cc3ccccc3)cc21 [Compound 1096] | 0.31 ± 0.16 | 2.56 ± 0.53 | 7.17 ± 2.38 | 5.89 ± 0.68 | 86 ± 8 | dns | dns |  |  |  | dns | dns |  |  | 
Cc1cc(O)cc(C)c1C[C@H](N)C(=O)N[C@@H]1CCNc2c(CN3CCCCC3)cc(Cc3ccccc3)cc21 [Compound 1097] | 0.07 ± 0.03 | 2.41 | 0.71 | 2.32 ± 0.21 | 93 ± 1.67 |  |  | Inactive |  |  |  |  |  |  | 
Cc1cc(O)cc(C)c1C[C@H](N)C(=O)N[C@@H]1CCNc2c(C)cc(Cc3ccccc3)cc21 [Compound 1100] | 2.63 | 1.09 | 18.3 |  |  |  |  | Fully efficacious |  |  |  |  |  |  | 90
CCOC(=O)c1cc(Cc2ccccc2)cc2c1NCC[C@H]2NC(=O)[C@@H](N)Cc1c(C)cc(O)cc1C [Compound 1102] | 1.01 ± 0.28 | 4.2 | 48.7 | 4.91 ± 0.28 | 70.5 ± 2.61 | dns | dns | Fully efficacious |  |  |  |  |  |  | 150
Cc1cc(O)cc(C)c1C[C@H](N)C(=O)N[C@@H]1CCNc2c(C(=O)NCc3ccccc3)cc(Cc3ccccc3)cc21 [Compound 1104] | 0.36 | 2.17 | 29.4 | 4.18 | 79 | dns | dns | Inactive |  |  |  |  |  |  | 
